{"source": "patent US10111890B2", "about": "“9-aminomethyl minocycline compounds and uses thereof” (Paratek Pharmaceuticals, Inc., priority 2016, dated 2018)", "key": {"[1]": {"experiment": "Phase 3 oral omadacycline vs oral linezolid in ABSSSI: safety (adverse events, TEAEs, vital signs, ECG, laboratory)", "type": "in vivo", "conditions": "safety population", "excerpt": "An Adverse Event (AE) is any untoward, undesired, or unplanned event in the form of signs, symptoms, disease, or laboratory or physiologic observations occurring in a person given a test article or in a clinical study. […] An AE includes, but is not limited to, the following: any clinically significant worsening of a preexisting condition; an AE occurring from overdose of a test article, whether accidental or intentional; overdose is a dose greater than that specified in the protocol; an AE occurring from abuse (e.g., use for nonclinical reasons) of a test article; and an AE that has been associated with the discontinuation of the use of a test article.\nThe severity (or intensity) of an AE was classified using the following criteria:\nConcerning relatedness, causality (i.e., whether there was a reasonable possibility that test article caused the event) for all AEs and SAEs was assessed.\nSafety variables include the incidence rate of AEs, change in vital signs, ECG parameters and laboratory test results obtained during the course of the study. For safety analyses, subjects were analyzed according to the treatment actually received.\nSummary tables were provided for all treatment-emergent adverse events (TEAEs). A TEAE is defined as an AE with a start date and time on or after the first dose of test article. […] Additional tabulations provide summaries by SOC and PT of subjects experiencing SAEs, severe TEAEs, TEAEs judged to be related to test article, TEAEs leading to discontinuation of test article, and TEAEs of special interest.\nThe following variables were analyzed descriptively: Vital signs (systolic and diastolic BP, pulse rate, body temperature, respiratory rate), including change from Screening by visit; Clinically notable vital signs (meeting predefined criteria as specified in the SAP) by visit. Subjects with notable vital signs data were listed.\nECG data (RR interval, PR interval, QRS interval, QTc, QTc Bazett's Correction Formula [QTcB], and QTc Fridericia's Correction Formula [QTcF]) was summarized descriptively at each scheduled evaluation, and for the overall worst post-Screening value. Changes from Screening at each visit that a 12-lead ECG was obtained was also provided. An outlier analysis was conducted based on the worst post-Screening value.\nThe following variables were analyzed descriptively: Laboratory variables by visit; Change from Screening of laboratory variables by visit; and Clinically notable laboratory values (meeting predefined criteria specified in the SAP) by visit."}, "ABSSSI": {"tested_on": "ABSSSI", "experiment": "Earlier Phase 3 i.v.-to-oral omadacycline vs linezolid study in ABSSSI: clinical success", "type": "in vivo, human", "conditions": "i.v. with switch to oral"}, "[2]": {"tested_on": "ABSSSI known or suspected to be due to Gram-positive pathogens", "experiment": "Phase 3 oral omadacycline vs oral linezolid in ABSSSI: Early Clinical Response 48-72 hours after first dose", "type": "in vivo, human", "conditions": "for Early Clinical Success, %: micro-mITT, % of N1"}, "[3]": {"conditions": "48-72 hours after first dose, mITT population"}, "[4]": {"conditions": "Cellulitis/erysipelas, actual type, 48-72 hours, mITT"}, "[5]": {"conditions": "Cellulitis/erysipelas, as randomized, 48-72 hours, mITT"}, "[6]": {"conditions": "Major Abscess, actual type, 48-72 hours, mITT"}, "[7]": {"conditions": "Major Abscess, as randomized, 48-72 hours, mITT"}, "[8]": {"conditions": "Wound Infection, actual type, 48-72 hours, mITT"}, "[9]": {"conditions": "Wound Infection, as randomized, 48-72 hours, mITT"}}, "data": [{"smiles": "CC(=O)NCC1CN(c2ccc(N3CCOCC3)c(F)c2)C(=O)O1", "note": "(stereo not drawn) [Linezolid, N-[[3-(3-fluoro-4-morpholinophenyl)-2-oxooxazolidin-5-yl]methyl]acetamide, reference compound]", "values": [{"measurement": "TEAE: Nausea, Severe", "setting": "[1]; highest severity Severe", "result": "0 n (%)"}, {"measurement": "TEAE: Vomiting, Severe", "setting": "[1]; highest severity Severe", "result": "0 n (%)"}, {"measurement": "Subjects with at Least One TEAE", "setting": "[1]; most frequent (≥2%) TEAEs table", "result": "137 (37.3) n (%)"}, {"measurement": "clinical success based on investigator's assessment of clinical response", "setting": "ABSSSI; 7-14 days after the last dose", "result": 83.6, "unit": "%"}, {"measurement": "clinical success based on a reduction of lesion size", "setting": "ABSSSI; 48-72 hours after the first dose, FDA primary analysis population (N=627)", "result": 85.5, "unit": "%"}, {"measurement": "Early Clinical Response: Clinical Failure", "setting": "[2]; [3]", "result": "32 (8.9) n (%)"}, {"measurement": "Early Clinical Response: Clinical Failure or Indeterminate", "setting": "[2]; [3]", "result": "63 (17.5) n (%)"}, {"measurement": "Early Clinical Response: Indeterminate", "setting": "[2]; [3]", "result": "31 (8.6) n (%)"}, {"measurement": "Early Clinical Response: Clinical Success", "setting": "[2]; 48-72 hours after first dose, mITT population (N = 360 per arm)", "result": "297 (82.5) n (%)"}, {"measurement": "Early Clinical Response: Clinical Success", "setting": "[2]; Cellulitis/erysipelas, actual type of infection, 48-72 hours, mITT", "result": "65 (77.4) n (%)"}, {"measurement": "Early Clinical Response: Clinical Failure", "setting": "[2]; [4]", "result": "12 (14.3) n (%)"}, {"measurement": "Early Clinical Response: Clinical Failure or Indeterminate", "setting": "[2]; [4]", "result": "19 (22.6) n (%)"}, {"measurement": "Early Clinical Response: Indeterminate", "setting": "[2]; [4]", "result": "7 (8.3) n (%)"}, {"measurement": "Early Clinical Response: Clinical Failure", "setting": "[2]; [5]", "result": "12 (14.3) n (%)"}, {"measurement": "Early Clinical Response: Clinical Failure or Indeterminate", "setting": "[2]; [5]", "result": "19 (22.6) n (%)"}, {"measurement": "Early Clinical Response: Indeterminate", "setting": "[2]; [5]", "result": "7 (8.3) n (%)"}, {"measurement": "Early Clinical Response: Clinical Success", "setting": "[2]; Cellulitis/erysipelas, type of infection as randomized, 48-72 hours, mITT", "result": "65 (77.4) n (%)"}, {"measurement": "Early Clinical Response: Clinical Success", "setting": "[2]; Major Abscess, actual type of infection, 48-72 hours, mITT", "result": "55 (88.7) n (%)"}, {"measurement": "Early Clinical Response: Clinical Failure", "setting": "[2]; [6]", "result": "4 (6.5) n (%)"}, {"measurement": "Early Clinical Response: Clinical Failure or Indeterminate", "setting": "[2]; [6]", "result": "7 (11.3) n (%)"}, {"measurement": "Early Clinical Response: Indeterminate", "setting": "[2]; [6]", "result": "3 (4.8) n (%)"}, {"measurement": "Early Clinical Response: Clinical Failure", "setting": "[2]; [7]", "result": "4 (6.5) n (%)"}, {"measurement": "Early Clinical Response: Clinical Failure or Indeterminate", "setting": "[2]; [7]", "result": "7 (11.3) n (%)"}, {"measurement": "Early Clinical Response: Indeterminate", "setting": "[2]; [7]", "result": "3 (4.8) n (%)"}, {"measurement": "Early Clinical Response: Clinical Success", "setting": "[2]; Major Abscess, type of infection as randomized, 48-72 hours, mITT", "result": "55 (88.7) n (%)"}, {"measurement": "Early Clinical Response: Clinical Success", "setting": "[2]; Wound Infection, actual type of infection, 48-72 hours, mITT", "result": "177 (82.7) n (%)"}, {"measurement": "Early Clinical Response: Clinical Failure", "setting": "[2]; [8]", "result": "16 (7.5) n (%)"}, {"measurement": "Early Clinical Response: Clinical Failure or Indeterminate", "setting": "[2]; [8]", "result": "37 (17.3) n (%)"}, {"measurement": "Early Clinical Response: Indeterminate", "setting": "[2]; [8]", "result": "21 (9.8) n (%)"}, {"measurement": "Early Clinical Response: Clinical Failure", "setting": "[2]; [9]", "result": "16 (7.5) n (%)"}, {"measurement": "Early Clinical Response: Clinical Failure or Indeterminate", "setting": "[2]; [9]", "result": "37 (17.3) n (%)"}, {"measurement": "Early Clinical Response: Indeterminate", "setting": "[2]; [9]", "result": "21 (9.8) n (%)"}, {"measurement": "Early Clinical Response: Clinical Success", "setting": "[2]; Wound Infection, type of infection as randomized, 48-72 hours, mITT", "result": "177 (82.7) n (%)"}, {"measurement": "Early Clinical Success, %", "setting": "[2]; baseline pathogen Clostridium perfringens, 48-72 hours after first dose", "result": "(100.0) %"}, {"measurement": "Early Clinical Success, %", "setting": "[2]; baseline pathogen Enterobacter cloacae, 48-72 hours after first dose", "result": "(83.3) %"}, {"measurement": "Early Clinical Success, %", "setting": "[2]; baseline pathogen Enterococcus faecalis VRE, 48-72 hours after first dose", "result": "(100.0) %"}, {"measurement": "Early Clinical Success, %", "setting": "[2]; baseline pathogen Enterococcus faecalis VSE, 48-72 hours after first dose", "result": "(60.0) %"}, {"measurement": "Early Clinical Success, %", "setting": "[2]; baseline pathogen Enterococcus faecalis, 48-72 hours after first dose", "result": "(66.7) %"}, {"measurement": "Early Clinical Success, %", "setting": "[2]; baseline pathogen Enterococcus faecium VSE, 48-72 hours after first dose", "result": "(100.0) %"}, {"measurement": "Early Clinical Success, %", "setting": "[2]; baseline pathogen Enterococcus faecium, 48-72 hours after first dose", "result": "(100.0) %"}, {"measurement": "Early Clinical Success, %", "setting": "[2]; baseline pathogen Escherichia coli, 48-72 hours after first dose", "result": "(100.0) %"}, {"measurement": "Early Clinical Success, %", "setting": "[2]; baseline pathogen Finegoldia magna, 48-72 hours after first dose", "result": "(0.0) %"}, {"measurement": "Early Clinical Success, %", "setting": "[2]; baseline pathogen Klebsiella pneumoniae, 48-72 hours after first dose", "result": "(83.3) %"}, {"measurement": "Early Clinical Success, %", "setting": "[2]; baseline pathogen MRSA, 48-72 hours after first dose", "result": "(88.8) %"}, {"measurement": "Early Clinical Success, %", "setting": "[2]; baseline pathogen MSSA, 48-72 hours after first dose", "result": "(79.2) %"}, {"measurement": "Early Clinical Success, %", "setting": "[2]; baseline pathogen Prevotella denticola, 48-72 hours after first dose", "result": "(100.0) %"}, {"measurement": "Early Clinical Success, %", "setting": "[2]; baseline pathogen Prevotella melaninogenica, 48-72 hours after first dose", "result": "(100.0) %"}, {"measurement": "Early Clinical Success, %", "setting": "[2]; baseline pathogen Staphylococcus aureus, 48-72 hours after first dose", "result": "(83.3) %"}, {"measurement": "Early Clinical Success, %", "setting": "[2]; baseline pathogen Streptococcus agalactiae, 48-72 hours after first dose", "result": "(50.0) %"}, {"measurement": "Early Clinical Success, %", "setting": "[2]; baseline pathogen Streptococcus anginosus group, 48-72 hours after first dose", "result": "(80.0) %"}, {"measurement": "Early Clinical Success, %", "setting": "[2]; baseline pathogen Streptococcus anginosus, 48-72 hours after first dose", "result": "(85.0) %"}, {"measurement": "Early Clinical Success, %", "setting": "[2]; baseline pathogen Streptococcus constellatus, 48-72 hours after first dose", "result": "(100.0) %"}, {"measurement": "Early Clinical Success, %", "setting": "[2]; baseline pathogen Streptococcus intermedius, 48-72 hours after first dose", "result": "(75.0) %"}, {"measurement": "Early Clinical Success, %", "setting": "[2]; baseline pathogen Streptococcus pyogenes, 48-72 hours after first dose", "result": "(81.3) %"}]}]}
